Where two headings read alike, the source gives them in different places. Ends that are not written are not given here.
Experiments:
[1] = test system: S. aureus DSM 11729 (MRSA)
[2] = test system: P. aeruginosa DSMZ1128; type: cell-based, Pseudomonas aeruginosa; settings: DSMZ1128, 24 h
Description: (§1) The bacterial inoculum was established by the dilution method from actively-growing cultures in Mueller-Hinton broth, standardized with 0.5 McFarland turbidity standard as described in the CLSI method M26-A.
(§2) To determine the prevention of biofilm formation, both the bacterial inoculum and the antimicrobial agents were added simultaneously to the plates. The plates were incubated at 37° C. for 24 h and the optical density was read at 625 nm on a microtitre plate reader (BioTek Powerwave XS, Winooski, USA). The MIC was obtained as the lowest concentration of antimicrobial showing total inhibition of bacterial growth.

[3] = test system: P. aeruginosa DSMZ1299; type: cell-based, Pseudomonas aeruginosa; settings: DSMZ1299, 24 h, pH 7
Description: as §1, §2

[4] = test system: P. aeruginosa ATCC BAA-47; experiment: microbe, parasite or virus in culture; type: cell-based, Pseudomonas aeruginosa
Description: as §1
as §2, with “growth. […]” for “growth.”
(§3) FIC=MICA[combination]/MICA[alone]+MICB[combination]/MICB[alone] […]
(§4) In order to assess for the prevention of biofilm formation by both Gram-positive and Gram-negative bacteria, the bacterial inoculum and antimicrobial agents were added simultaneously in the plates. The range of concentrations of antimicrobial agents was 0-500 μg/ml NP108 and 0-320 μg/ml cysteamine against the Gram-negative bacteria P. aeruginosa ATCC BAA-47 and 0-1000 μg/ml NP108 and 0-320 μg/ml cysteamine against the Gram-positive MRSA.

[5] = test system: S. aureus DSM 11729 (MRSA); experiment: microbe, parasite or virus in culture; type: cell-based, Staphylococcus aureus
Description: as §1
as §2, with “growth. […]” for “growth.”
as §3, §4

[6] = test system: S. aureus ATCC25923; settings: ATCC25923, pH 7
[7] = test system: P. aeruginosa DSMZ1128; settings: DSMZ1128, pH 7
[8] = test system: S. aureus ATCC25923; type: cell-based, Staphylococcus aureus; settings: ATCC25923, 24 h
Description: as §1, §2

[9] = test system: S. epidermidis ATCC12228; settings: ATCC12228, pH 7
[10] = test system: S. epidermidis ATCC12228; type: cell-based, Staphylococcus epidermidis; settings: ATCC12228, 24 h
Description: as §1, §2

[11] = test system: P. aeruginosa DSMZ1299; settings: DSMZ1299, pH 7
[12] = test system: P. aeruginosa ATCC BAA-47
[13] = test system: Staphylococcus spp (4) biofilm cells; type: cell-based; settings: agent alone; biofilm cells
Description: (§5) The FIC was also calculated to assess the interaction of two antimicrobial agents in combination against bacterial biofilms. The same formulae applied, using MBEC instead of MIC.
(§6) A total volume of 100 μl bacterial inoculum in Mueller-Hinton was added to each well of 96-well plates (challenge plates) and the plates were incubated at 37° C. for 24 h on a gyrorotary shaking platform (Grant-bio PS-3D, Shepreth, England) at 24 rpm to allow for biofilm formation.
(§7) The challenge plates were then rinsed once with sterile PBS (lx) and two-fold serial dilutions of antimicrobial agents in Mueller-Hinton were added to the challenge plates. The challenge plates were incubated at 37° C. for 24 h on a gyrorotary shaking platform (Grant-bio PS-3D, Shepreth, England) at 24 rpm.
(§8) The supernatants from each of the challenge plates were transferred into fresh plates and the optical density was measured at 625 nm on a microtitre plate reader (BioTek Powerwave XS, Winooski, USA). The MBEC was obtained by the lowest concentration of antimicrobial showing no bacterial growth.
(§9) Summary of the activity of the tested antimicrobial agents against the Gram-negative P. aeruginosa strains and the Gram-positive Staphylococcus spp. The number into brackets indicates the maximum number of strains tested. MIC: minimum inhibition concentration; MBEC: minimum biofilm eradication concentration; FIC: fractional inhibitory concentration.

[14] = test system: P. aeruginosa ATCC BAA-47 (PAO1) biofilm cells; experiment: MBEC against 24 h-old biofilm; type: cell-based, Pseudomonas aeruginosa
Description: as §5, §6, §7, §8
(§10) The assessment of the activity of NP108 and cysteamine against bacterial biofilms was carried out with 24 h-old biofilms and the activity of both compounds in combination was also determined. The activity of the antimicrobial agents against bacterial biofilms was determined by their activity against the biofilm cells and against the persister cells.

[15] = test system: S. aureus DSM 11729 biofilm cells; type: cell-based, Staphylococcus aureus
Description: as §5, §6, §7, §8, §10

[16] = test system: Staphylococcus spp (4); experiment: microbe, parasite or virus in culture; type: cell-based; settings: agent alone; range over strains
Description: as §1, §2
(§11) The FIC corresponds to an interaction coefficient indicating whether the combination of antimicrobial agents is synergistic, additive, antagonist or neutral. The FIC is determined by comparing the activity of an agent in combination (MIC of agent A+agent B) with the activity of the agent alone (MIC of agent A or agent B) as follow (Singh et al., 2000):
(§12) FIC=MICA[combination]/MICA[alone]+MICB[combination]/MICB[alone]
(§13) Additive combinations of two antimicrobial agents are indicated by a FIC index of 1, whereas a FIC index <1 indicates synergistic combinations. Neutral combinations would give a FIC between 1 and 4, a FIC index higher than 4 indicates antagonist effects between the two antimicrobial agents.
as §9

[17] = test system: Staphylococcus spp (4) persister cells; experiment: Persister cells in biofilms (live/dead staining), summary over strains; type: cell-based; settings: agent alone; persister cells
Description: (§14) Following transfer of the supernatant from the challenge plates, the biofilms were rinsed once with sterile PBS (lx) and 100 μl of BacLight live/dead fluorescent staining solution (Invitrogen, Paisley, UK) containing 4 μM SYTO9 and 20 μM propidium iodide (PI) in sterile PBS (lx) were added to the wells of the challenge plates. The plates were incubated at room temperature in the dark for 15 min and the fluorescence was read at 485(ex)/528(em) and 485(ex)/645(em) for SYTO9 and PI fluorescence, respectively on a fluorescence microtitre plate reader (BioTek Synergy HT, Winooski, USA) with the sensitivity set at 50 and bottom optics position was selected. Direct observation of the biofilms with an Axiovert 40 fluorescence microscope (Zeiss, Gottingen, Germany) allowed identifying the presence of live and dead bacteria and pictures of the biofilms were taken at 100 to 400-fold magnification.
(§15) The relative viability of persister cells was determined by the live/dead fluorescence measurements ratio and microscopic observations were used to confirm the presence or absence of live cells.
as §9

[18] = test system: S. aureus DSM 11729 persister cells; experiment: Relative viability of persister cells (SYTO9/PI live/dead fluorescence, microscopy); type: cell-based, Staphylococcus aureus; settings: agent alone, at low concentrations; FIG. 18
Description: as §14, §15
The activity of NP108 and cysteamine against the persister cells was assessed using a fluorescence staining method to determine the relative viability of the cells. […]

[19] = test system: P. aeruginosa ATCC BAA-47 (PAO1) persister cells; experiment: as above; type: cell-based, Pseudomonas aeruginosa; settings: agent alone; relative viability remained significant; FIG. 12
Description: as §14, §15
The activity of NP108 and cysteamine against the persister cells was assessed using a fluorescence staining method to determine the relative viability of the cells. The nucleic acid-binding fluorescent molecules used were SYTO9 and PI, which penetrate all bacterial cells (green fluorescence) and membrane-disrupted cells (red fluorescence), respectively.

[20] = test system: P. aeruginosa strains (7); experiment: microbe, parasite or virus in culture; type: cell-based, Pseudomonas aeruginosa; settings: agent alone; range over strains
Description: as §1, §2, §11, §12, §13, §9

[21] = agent alone, prevention of biofilm formation, 24 h

RRRFRFFFRFRRR [NP432, RRRFRFFFRFRRR]
MBC at pH5.5, S. aureus 11729 ([1]; DSM 11729, pH 5.5): >500 μg/ml
MBC pH5.5, 320 mM NaCl, S. aureus 11729 ([1]; DSM 11729, pH 5.5): >500 μg/ml
MBC following MIC at pH 7, S. aureus DSMZ11729 ([1]; DSM 11729, pH 7): 500 μg/ml
MIC at pH 7, P. aeruginosa DSMZ1128 [2]: 62.5 μg/ml
MIC at pH 7, P. aeruginosa D5MZ1299 [3]: 15.6 μg/ml
MIC pH5.5, 320 mM NaCl, P. aeruginosa ATCCBAA-47 ([4]; ATCC BAA-47, 24 h, pH 5.5): 125 μg/ml
MIC pH5.5, P. aeruginosa ATCCBAA-47 ([4]; ATCC BAA-47, 24 h, pH 5.5): 125 μg/ml
MIC at pH 7, P. aeruginosa ATCCBAA-47 ([4]; ATCC BAA-47, 24 h, pH 7): 15.6 μg/ml
MIC pH5.5, 320 mM NaCl, S. aureus 11729 ([5]; DSM 11729, 24 h, pH 5.5): >500 μg/ml
MIC pH5.5, S. aureus 11729 ([5]; DSM 11729, 24 h, pH 5.5): >500 μg/ml
MIC at pH 7, S. aureus DSMZ11729 ([5]; DSM 11729, 24 h, pH 7): 62.5 μg/ml
MBC following MIC at pH 7, S. aureus ATCC25923 [6]: 250 μg/ml
MBC following MIC at pH 7, P. aeruginosa DSMZ1128 [7]: 250 (2) μg/ml
MIC at pH 7, S. aureus ATCC25923 [8]: 31.25 μg/ml
MBC following MIC at pH 7, S. epidermidis ATCC12228 [9]: 16 μg/ml
MIC at pH 7, S. epidermidis ATCC12228 [10]: <7.8 μg/ml
MBC following MIC at pH 7, P. aeruginosa DSMZ1299 [11]: 32 (2) μg/ml
MBC at pH5.5, P. aeruginosa ATCCBAA-47 ([12]; ATCC BAA-47, pH 5.5): 125 μg/ml
MBC pH5.5, 320 mM NaCl, P. aeruginosa ATCCBAA-47 ([12]; ATCC BAA-47, pH 5.5): >500 μg/ml
MBC following MIC at pH 7, P. aeruginosa ATCCBAA-47 ([12]; ATCC BAA-47, pH 7): 250 μg/ml

poly-L-lysine, hydrobromide [NP108]
MBEC, Staphylococcus spp (4) [13]: 125 to 250 µg/mL
MBEC [alone], P. aeruginosa ATCC BAA-47 biofilm cells ([14]; agent alone): > 500 µg/mL
NP108 concentration giving complete inhibition of bacterial growth, P. aeruginosa ATCC BAA-47 biofilm cells ([14]; with 31.25 μg/ml cysteamine): 500 µg/mL
MBEC NP108[combination], P. aeruginosa ATCC BAA-47 biofilm cells ([14]; with 62.5 to 500 μg/ml cysteamine): 250 µg/mL
bactericidal concentration, S. aureus DSM 11729 ([1]; agent alone, data not shown): 125 µg/mL
bactericidal concentration of NP108 in combination, S. aureus DSM 11729 ([1]; with ≥80 μg/ml cysteamine, data not shown): 62.5 µg/mL
bactericidal concentration of NP108 in combination, S. aureus DSM 11729 ([1]; with ≥160 μg/ml cysteamine, data not shown): 31.25 µg/mL
MBEC, S. aureus (MRSA) DSM 11729 biofilm cells ([15]; agent alone): 125 µg/mL
MBEC NP108[combination], S. aureus DSM 11729 biofilm cells ([15]; with 62.5 μg/ml cysteamine): 31.25 µg/mL
MIC, Staphylococcus spp (4) [16]: 16 to 125 µg/mL
MIC, P. aeruginosa ATCC BAA-47 [4, 21]: 62.5 µg/mL
MIC of NP108 in the presence of cysteamine, P. aeruginosa ATCC BAA-47 ([4]; in the presence of 160 μg/ml cysteamine): 31.25 µg/mL
Persisters, active concentration, Staphylococcus spp (4) [17]: >500 µg/mL
activity against persister cells of S. aureus DSM 11729 [18]: lack of activity
MIC of NP108 in the presence of cysteamine, S. aureus DSM 11729 ([5]; 320 μg/ml cysteamine added): 15.625 µg/mL
MIC, S. aureus DSM 11729 [5, 21]: 125 µg/mL
MIC of NP108 in the presence of cysteamine, S. aureus DSM 11729 ([5]; in the presence of 40 μg/ml cysteamine): 31.25 µg/mL
activity against persister cells of P. aeruginosa ATCC BAA-47 [19]: lack of activity
MIC, P. aeruginosa strains (7) [20]: 31.25 to 500 µg/mL
bactericidal concentration, P. aeruginosa ATCC BAA-47 ([12]; agent alone, data not shown): 250 µg/mL
bactericidal concentration of NP108 in combination, P. aeruginosa ATCC BAA-47 ([12]; with 320 μg/ml cysteamine, data not shown): 125 µg/mL
